Experimental data as given in PubChem BioAssay (NCI).
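Briefly, cells in 96-well plates were exposed to five compound concentrations for 48 h, and endpoints were estimated by linear interpolation. The concentration for 50% growth inhibition is given as GI50. TGI denotes the concentration required for complete inhibition of growth.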

Experiments:
Assay in all cases: NCI tumour cell line growth inhibition, 48 h
IGROV1 ovarian = test system: IGROV1 ovarian
SK-OV-3 ovarian = test system: SK-OV-3 ovarian
HOP-92 NSCLC = test system: HOP-92 NSCLC
UO-31 renal = test system: UO-31 renal
A549 NSCLC = test system: A549 NSCLC
COLO 205 colon = test system: COLO 205 colon
SK-MEL-5 melanoma = test system: SK-MEL-5 melanoma
MCF7 breast = test system: MCF7 breast
SF-295 CNS = test system: SF-295 CNS
UACC-62 melanoma = test system: UACC-62 melanoma
786-0 renal = test system: 786-0 renal
A498 renal = test system: A498 renal
SR leukemia = test system: SR leukemia
UACC-257 melanoma = test system: UACC-257 melanoma
HT29 colon = test system: HT29 colon
DU-145 prostate = test system: DU-145 prostate
OVCAR-8 ovarian = test system: OVCAR-8 ovarian
BT-549 breast = test system: BT-549 breast
SNB-19 CNS = test system: SNB-19 CNS
HOP-62 NSCLC = test system: HOP-62 NSCLC
HCC-2998 colon = test system: HCC-2998 colon
OVCAR-4 ovarian = test system: OVCAR-4 ovarian
HS 578T breast = test system: HS 578T breast
MALME-3M melanoma = test system: MALME-3M melanoma
LOX IMVI melanoma = test system: LOX IMVI melanoma
NCI-H23 lung = test system: NCI-H23 lung
CAKI-1 renal = test system: CAKI-1 renal
SK-MEL-28 melanoma = test system: SK-MEL-28 melanoma
OVCAR-3 ovarian = test system: OVCAR-3 ovarian
HL-60(TB) leukemia = test system: HL-60(TB) leukemia
NCI-H460 lung = test system: NCI-H460 lung
HCT-116 colon = test system: HCT-116 colon
OVCAR-5 ovarian = test system: OVCAR-5 ovarian
M14 melanoma = test system: M14 melanoma
PC-3 prostate = test system: PC-3 prostate
EKVX NSCLC = test system: EKVX NSCLC
NCI-H522 lung = test system: NCI-H522 lung
SN12C renal = test system: SN12C renal
SF-268 CNS = test system: SF-268 CNS
SF-539 CNS = test system: SF-539 CNS
T-47D breast = test system: T-47D breast
K-562 leukemia = test system: K-562 leukemia
MDA-MB-435 = test system: MDA-MB-435
RPMI-8226 leukemia = test system: RPMI-8226 leukemia
KM12 colon = test system: KM12 colon
U251 CNS = test system: U251 CNS
MDA-MB-231 breast = test system: MDA-MB-231 breast
RXF 393 renal = test system: RXF 393 renal
NCI-H226 lung = test system: NCI-H226 lung
MOLT-4 leukemia = test system: MOLT-4 leukemia
NCI/ADR-RES ovarian = test system: NCI/ADR-RES ovarian
SK-MEL-2 melanoma = test system: SK-MEL-2 melanoma
SW-620 colon = test system: SW-620 colon
ACHN renal = test system: ACHN renal
TK-10 renal = test system: TK-10 renal
HCT-15 colon = test system: HCT-15 colon
CCRF-CEM leukemia = test system: CCRF-CEM leukemia

## Cc1ccc(C2=Nc3c(N)nc(N)nc3NC(c3cccc(Nc4ccnc5cc(C(F)(F)F)ccc45)c3)C2)cc1 (centres undefined)
IGROV1 ovarian
  GI50: 1.89 µM
  TGI: 4.77 µM
SK-OV-3 ovarian
  GI50: 3.56 µM
  TGI: 13.4 µM
HOP-92 NSCLC
  GI50: 1.35 µM
  TGI: 2.9 µM
UO-31 renal
  GI50: 1.51 µM
  TGI: 3.03 µM
A549 NSCLC
  GI50: 2.88 µM
  TGI: 10.7 µM
COLO 205 colon
  GI50: 1.71 µM
  TGI: 3.68 µM
SK-MEL-5 melanoma
  GI50: 1.6 µM
  TGI: 2.98 µM
MCF7 breast
  GI50: 1.84 µM
  TGI: 4.99 µM
SF-295 CNS
  GI50: 1.56 µM
  TGI: 3.17 µM
UACC-62 melanoma
  GI50: 1.7 µM
  TGI: 3.46 µM
786-0 renal
  GI50: 1.51 µM
  TGI: 2.9 µM
A498 renal
  GI50: 2.15 µM
  TGI: 8.02 µM
SR leukemia
  GI50: 1.53 µM
  TGI: 5.44 µM
UACC-257 melanoma
  GI50: 2.12 µM
  TGI: 4.42 µM
HT29 colon
  GI50: 2.46 µM
  TGI: 5.89 µM
DU-145 prostate
  GI50: 2.78 µM
  TGI: 6.52 µM
OVCAR-8 ovarian
  GI50: 2.31 µM
  TGI: 5.6 µM
BT-549 breast
  GI50: 1.66 µM
  TGI: 3.36 µM
SNB-19 CNS
  GI50: 2.27 µM
  TGI: 7.08 µM
HOP-62 NSCLC
  GI50: 2.66 µM
  TGI: 9.4 µM
HCC-2998 colon
  GI50: 1.77 µM
  TGI: 3.33 µM
OVCAR-4 ovarian
  GI50: 3.02 µM
  TGI: 14 µM
HS 578T breast
  GI50: 1.66 µM
  TGI: 4.46 µM
MALME-3M melanoma
  GI50: 1.86 µM
  TGI: 3.87 µM
LOX IMVI melanoma
  GI50: 1.74 µM
  TGI: 3.3 µM
NCI-H23 lung
  GI50: 2.18 µM
  TGI: 5.58 µM
CAKI-1 renal
  GI50: 2.29 µM
  TGI: 8.71 µM
SK-MEL-28 melanoma
  GI50: 1.7 µM
  TGI: 3.33 µM
OVCAR-3 ovarian
  GI50: 1.78 µM
  TGI: 3.53 µM
HL-60(TB) leukemia
  GI50: 2.38 µM
  TGI: 5.54 µM
NCI-H460 lung
  GI50: 1.87 µM
  TGI: 3.68 µM
HCT-116 colon
  GI50: 1.61 µM
  TGI: 2.96 µM
OVCAR-5 ovarian
  GI50: 3.69 µM
  TGI: 15.7 µM
M14 melanoma
  GI50: 1.72 µM
  TGI: 3.43 µM
PC-3 prostate
  GI50: 1.59 µM
  TGI: 4.38 µM
EKVX NSCLC
  GI50: 2.91 µM
  TGI: 11.5 µM
NCI-H522 lung
  GI50: 1.56 µM
  TGI: 3.49 µM
SN12C renal
  GI50: 2.03 µM
  TGI: 4.71 µM
SF-268 CNS
  GI50: 1.93 µM
  TGI: 4.19 µM
SF-539 CNS
  GI50: 1.77 µM
  TGI: 3.49 µM
T-47D breast
  GI50: 2.22 µM
  TGI: 8.73 µM
K-562 leukemia
  GI50: 1.37 µM
  TGI: 6.98 µM
MDA-MB-435
  GI50: 1.2 µM
  TGI: 2.63 µM
RPMI-8226 leukemia
  GI50: 1.9 µM
  TGI: 4.7 µM
KM12 colon
  GI50: 1.71 µM
  TGI: 3.63 µM
U251 CNS
  GI50: 1.82 µM
  TGI: 3.62 µM
MDA-MB-231 breast
  GI50: 1.67 µM
  TGI: 3.26 µM
RXF 393 renal
  GI50: 1.41 µM
  TGI: 2.87 µM
NCI-H226 lung
  GI50: 4.88 µM
  TGI: 22.3 µM
MOLT-4 leukemia
  GI50: 2.43 µM
  TGI: 6.43 µM
NCI/ADR-RES ovarian
  GI50: 2.29 µM
  TGI: 6.15 µM
SK-MEL-2 melanoma
  GI50: 1.95 µM
  TGI: 4.05 µM
SW-620 colon
  GI50: 1.7 µM
  TGI: 3.52 µM
ACHN renal
  GI50: 2.8 µM
  TGI: 11.1 µM
TK-10 renal
  GI50: 4.11 µM
  TGI: 16.5 µM
HCT-15 colon
  GI50: 1.76 µM
  TGI: 3.57 µM
CCRF-CEM leukemia
  GI50: 2.21 µM
  TGI: 5.73 µM
